Data taken from patent publication US11980616B2, “Treating liver disease by selectively eliminating senescent cells” (Buck Institute for Research on Aging, priority 2014, dated 2024).

How the values were obtained:
[1] = system: senescent foreskin fibroblasts (Sen(IR)BJ); assay: Cell count survival assay, irradiation-induced senescent BJ; assay type: cell-based; details: 0, 2.5, 10 μM for 9 days
Experimental: (§1) Foreskin fibroblast cell lines HCA2 and BJ, lung fibroblast cell line IMR90, and mouse embryonic fibroblasts were seeded in six-well plates and induced to senesce with 10 Gy of ionizing radiation (IR) or a 24 hr treatment with doxorubicin (Doxo). Senescent phenotype was allowed to develop for at least 7 days, at which point a cell count was made to determine the baseline number of cells. Nutlin-3a treatment was then initiated for a period of at least 9 days. Media alone or media with drug as appropriate was refreshed at least every three days. At the end of the assay time period, cells are counted. Each condition was seeded in three plate wells and counted independently. Initial cell count serves as a control to determine the induction of senescence, as compared to the last day count without nutlin treatment. Initial non-senescent cell count serves as a proxy to determine Nutlin-3a toxicity.
(§2) Foreskin fibroblast cell lines HCA2 and BJ, lung fibroblast cell line IMR90, and mouse embryonic fibroblasts were exposed to 10 Gy of ionizing radiation (IR) to induce senescence. […] Percent survival was calculated as [cell count on day 9 of Nutlin-3a treatment/initial cell count on first day of Nutlin-3a treatment].

[2] = system: senescent mouse embryonic fibroblasts (MEF); assay: Cell count survival assay, irradiation-induced senescent MEF; assay type: cell-based; details: irradiated MEF; 0, 2.5, 10 μM for 9 days
Experimental: as §1, §2

[3] = system: doxorubicin-treated (Doxo) senescent foreskin fibroblasts (HCA2); assay: Cell count survival assay, doxorubicin-induced senescent HCA2; assay type: cell-based; details: Sen(Doxo) HCA2; 9 days
Experimental: as §1
(§3) Foreskin fibroblasts (HCA2) and aortic endothelial cells (Endo Aort) were treated with doxorubicin (250 nM) for one day (24 hours) to induce senescence (see FIG. 1). Eight days following doxorubicin treatment, Nutlin-3a treatment was initiated. HCA2 cells were exposed to Nutlin-3a for 9 days, and aortic endothelial cells were exposed to Nutlin-3a for 11 days. […] Percent survival was calculated as [cell count on the last day of Nutlin-3a treatment/initial cell count on first day of Nutlin-3a treatment].

[4] = system: doxorubicin-treated (Doxo) senescent aortic endothelial cells (Endo Aort); assay: Cell count survival assay, doxorubicin-induced senescent aortic endothelial cells; assay type: cell-based; details: Sen(Doxo) aortic endothelial cells; 11 days
Experimental: as §1, §3

[5] = system: non-senescent lung fibroblasts (Non Sen IMR90); assay: Cell count toxicity assay, non-senescent IMR90; assay type: cell-based, human; details: 0, 2.5, 10 μM, 9 days
Experimental: as §1
Non-senescent foreskin fibroblasts (HCA2), lung fibroblasts (IMR90), and mouse embryonic fibroblasts (MEF) were treated with varying concentrations (0, 2.5 μM, and 10 μM) of Nutlin-3a for a period of 9 days to assess Nutlin-3a toxicity. Cell counts were taken at the start (NS start) and end of Nutlin-3a treatment. The difference between counts of cells not treated with Nutlin-3a on day 9 (NS 0) and cell counts determined at day zero (NS start) reflects the cell growth over the indicated time period. […]

[6] = system: IL-6 secretion by senescent IMR90 cells; assay: IL-6 secretion ELISA in irradiated senescent IMR90 cells; assay type: cell-based, human; details: 10 μM for nine days, then six days without drug; ELISA normalized to cell number
Experimental: In another experiment, IMR90 cells were induced to senesce by irradiation (10 Gy). Seven days after irradiation, cells were treated with 10 μM Nutlin-3a or vehicle (DMSO) for nine days (Day 9). The drug or vehicle was refreshed every three days. Drug/vehicle was removed at Day 9 and the cells were cultured for an additional six days. Conditioned media from the treated cells was collected, and IL-6 measurement by ELISA was performed (Perkin Elmer, AL223F). IL-6 levels in culture media were determined by ELISA using a kit according to manufacturer's instructions (AL223F, Perkin Elmer). Cells were fixed with 4% paraformaldehyde and stained by immunofluorescence with a specific anti-IL-6 antibody (R&D, AF-206-NA). The IL-6 level determined by ELISA was normalized to the number of cells in each well. The data are presented in FIG. 22C as a relative level of IL-6 in the treated cells compared to the level in non-senescent cells (NS). The data are presented as an average of three different cell samples.

[7] = system: LDLR-/-/3MR double transgenic mice fed a HFD; assay: Atherosclerosis model, LDLR-/-/3MR double transgenic mice fed a HFD; assay type: in vivo, mouse; details: vs LDLR-/- HFD controls
Experimental: The study illustrated in FIG. 43B assessed the extent to which […] based clearance of senescent cells from LDLR^−/−/3MR double transgenic mice improves pre-existing atherogenic disease. LDLR^−/−/3MR double transgenic mice (10 weeks) and LDLR^−/− single transgenic mice (10 weeks) are fed a high fat diet beginning at Week 0 until Week 12. Gancyclovir is administered to both groups of mice (25 mg/kg intraperitoneally) from weeks 12-13 and weeks 14-15. At week 16, the level of plaque and the number of senescent cells in the plaques are determined.

[8] = system: p16-3MR mice fed a high fat diet; assay: High fat feeding-induced senescence in p16-3MR mice, SA-β-Gal staining of adipose tissue; assay type: in vivo, mouse; details: 25 mg/kg daily for five days; p=<0.004
Experimental: Groups of p16-3MR mice (n=6) were fed a high fat diet (60% fat) for four months mice or a regular chow diet. The presence of senescence cells was determined by measuring luminescence p16 positive cells). […] Animals were then treated with ganciclovir or vehicle to determine if removal of senescent cells reduced the presence of senescent cells in adipose tissue. Groups of animals were treated with ganciclovir or vehicle. Ganciclovir (25 mg/kg) was administered daily for five consecutive days. The presence of senescent cells in perirenal, epididymal, or subcutaneous inguinal adipose tissue was detected by SA-β-Gal staining. Data were analyzed by ANOVA.

Structure (SMILES)	Percent survival [1]	Percent survival [2]	Percent survival [3]	Percent survival [4]	Proliferation (percent growth) [5]	Toxicity (cell number vs starting level) [5]	IL-6 level, fold lower than DMSO treated cells [6]	% of the aorta covered with plaque ([7]; 25 mg/kg i.p. weeks 12-13 and 14-15)	Plaque cross-sectional area ([7]; 25 mg/kg i.p.)	Presence of senescent cells in epididymal fat (SA-β-Gal staining) [8]
COc1ccc(C2=N[C@@H](c3ccc(Cl)cc3)[C@@H](c3ccc(Cl)cc3)N2C(=O)N2CCNC(=O)C2)c(OC(C)C)c1 [Nutlin-3a]	reduced cell survival	reduced cell survival	sensitive	sensitive	reduces proliferation	non-toxic	5-9 fold			
Nc1nc(O)c2ncn(COC(CO)CO)c2n1 [ganciclovir]								reduces the % of the aorta covered with plaque	reduced the plaque cross-sectional area	significant reduction
